According to ChEMBL document CHEMBL1149604, “Disaccharide analogs as probes for glycosyltransferases in Mycobacterium tuberculosis” (Bioorg Med Chem, 2007):

The compounds below were run on Mycolicibacterium smegmatis (assay: Activity of Mycobacterial smegmatis-galactosyltransferase after 1 hr).

Question: How did the Km turn out when `CN(C)c1cccc2c(S(=O)(=O)NCCO[C@@H]3O[C@@H](C[C@H](CO)O[C@@H]4O[C@@H]([C@@H](O)CO)[C@H](O)[C@H]4O)[C@H](O)[C@H]3O)cccc12` was run?
Answer: 7330 µM

Question: Which Km does the source give for `[N-]=[N+]=Nc1cccc2c(S(=O)(=O)NCCO[C@@H]3O[C@@H]([C@@H](O)CO[C@@H]4O[C@@H]([C@@H](O)CO)[C@H](O)[C@H]4O)[C@H](O)[C@H]3O)cccc12` here?
Answer: 1980 µM

Question: For `CN(C)c1cccc2c(S(=O)(=O)NCCO[C@@H]3O[C@@H]([C@@H](O)CO[C@@H]4O[C@@H]([C@@H](O)CO)[C@H](O)[C@H]4O)[C@H](O)[C@H]3O)cccc12`, which Km is on record?
Answer: 2380 µM

Question: Which Km does the source give for `[N-]=[N+]=Nc1cccc2c(S(=O)(=O)NCCO[C@@H]3O[C@@H](C[C@H](CO)OC4O[C@@H]([C@@H](O)CO)[C@H](O)[C@H]4O)[C@H](O)[C@H]3O)cccc12` (stereo partly specified) here?
Answer: 2770 µM

Each compound was assayed on Mycolicibacterium smegmatis (assay: Activity of Mycobacterial smegmatis-arabinosyltransferase after 1 hr).

Question: How did the Km turn out when `[N-]=[N+]=Nc1cccc2c(S(=O)(=O)NCCO[C@H]3O[C@H](CO[C@H]4O[C@H](CO)[C@@H](O)[C@@H]4O)[C@@H](O)[C@@H]3O)cccc12` was run?
Answer: 3070 µM

Question: Which Km does the source give for `CN(C)c1cccc2c(S(=O)(=O)NCCO[C@H]3O[C@H](CO[C@H]4O[C@H](CO)[C@@H](O)[C@@H]4O)[C@@H](O)[C@@H]3O)cccc12` here?
Answer: 680 µM
